In assay [1] the test system is ubiquinone binding site of complex I (IQ). Put plainly: High-throughput screen: ROS production from ubiquinone binding site of complex I (IQ), isolated skeletal muscle mitochondria. Format: biochemical, rat. The following applies: percent change in ROS from DMSO controls.
In assay [2] the target is T1, flavin binding site of complex I (IF) (Rattus norvegicus, UniProt Q5XIH3).
T1 construct: freshly isolated muscle mitochondria were assayed; from tissue; host or cells: rat skeletal muscle mitochondria (Wistar, Harlan Laboratories)
T1 sequence (Q5XIH3 21-464 limits assumed, one chain of several): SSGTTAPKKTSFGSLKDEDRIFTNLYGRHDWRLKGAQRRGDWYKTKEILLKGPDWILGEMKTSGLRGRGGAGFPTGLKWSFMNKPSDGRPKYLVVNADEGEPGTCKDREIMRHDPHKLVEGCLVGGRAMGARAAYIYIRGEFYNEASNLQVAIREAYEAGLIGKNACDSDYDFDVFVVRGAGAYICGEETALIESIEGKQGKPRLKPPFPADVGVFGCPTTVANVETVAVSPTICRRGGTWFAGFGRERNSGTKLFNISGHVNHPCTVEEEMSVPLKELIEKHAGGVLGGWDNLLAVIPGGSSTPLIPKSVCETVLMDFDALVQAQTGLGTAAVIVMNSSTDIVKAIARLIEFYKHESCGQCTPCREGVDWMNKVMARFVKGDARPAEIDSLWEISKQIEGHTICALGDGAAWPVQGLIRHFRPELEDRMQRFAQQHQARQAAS
Briefly: High-throughput screen: ROS production from flavin binding site of complex I (IF). Format: biochemical. The conditions noted are these: percent change in ROS from DMSO controls; for inhibition at 2.5 µM: Table 7, read-out: IF.

Assay [3] addresses T2, outer ubiquinone binding site of complex III (IIIQO) (Rattus norvegicus, UniProt P00159+P20788).
T2 construct: freshly isolated muscle mitochondria were assayed; from tissue; host or cells: rat skeletal muscle mitochondria (Wistar, Harlan Laboratories)
Put plainly: High-throughput screen: ROS production from outer ubiquinone binding site of complex III (IIIQO). In kind it is biochemical. The following applies: for IIIQO: Table 8.

Assay [4] concerns the target T3, glycerol-3-phosphate dehydrogenase (GPDH) (Rattus norvegicus, UniProt P35571).
T3 construct: The activity of GPDH in intact mitochondria (0.3 mg/mL) was measured; from tissue; host or cells: rat skeletal muscle mitochondria (Wistar, Harlan Laboratories)
T3 sequence (P35571 43-727): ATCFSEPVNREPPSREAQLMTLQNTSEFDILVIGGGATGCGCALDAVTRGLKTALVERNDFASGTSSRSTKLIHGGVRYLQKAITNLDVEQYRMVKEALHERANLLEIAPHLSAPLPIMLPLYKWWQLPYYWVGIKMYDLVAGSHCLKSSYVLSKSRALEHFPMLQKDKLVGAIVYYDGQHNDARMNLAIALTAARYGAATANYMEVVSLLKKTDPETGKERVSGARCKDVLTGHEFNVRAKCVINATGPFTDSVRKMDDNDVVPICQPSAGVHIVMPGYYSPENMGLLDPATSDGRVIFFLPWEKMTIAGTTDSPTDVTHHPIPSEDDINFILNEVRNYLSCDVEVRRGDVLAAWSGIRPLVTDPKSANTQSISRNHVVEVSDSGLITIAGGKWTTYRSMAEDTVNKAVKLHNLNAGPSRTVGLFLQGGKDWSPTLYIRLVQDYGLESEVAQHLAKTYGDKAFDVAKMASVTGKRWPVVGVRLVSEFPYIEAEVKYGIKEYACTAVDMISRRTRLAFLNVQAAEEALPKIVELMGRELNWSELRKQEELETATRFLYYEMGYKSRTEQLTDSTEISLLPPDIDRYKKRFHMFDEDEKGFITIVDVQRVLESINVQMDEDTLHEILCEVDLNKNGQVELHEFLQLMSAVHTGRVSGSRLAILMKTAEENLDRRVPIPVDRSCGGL
Briefly: High-throughput screen: ROS production from glycerol-3-phosphate dehydrogenase (GPDH). Format: biochemical. On the set-up: inhibition: dose or concentration left out as unconfirmed. The following applies: for inhibition: Table 7; for inhibition / GPDH: percent change in ROS from DMSO controls; for inhibition at 2.5 µM: Table 6, 25 mM glycerol phosphate, rotenone, antimycin A, malonate, myxothiazol, compounds 2.5 μM, scaled to IQ positive controls, read-out: % Reduction in ROS Production (GPDH).
Method: (§1) Skeletal muscle mitochondria were isolated from 5-8 week old female Wistar rats (Harlan Laboratories). Minced muscle was homogenized in buffer containing bacterial protease Type VIII prior to differential centrifugation to separate mitochondria from other tissue components. Unless otherwise stated, freshly isolated muscle mitochondria were assayed in buffer containing 120 mM KCl, 5 mM HEPES, 1 mM EGTA, 0.3% (w/v) bovine serum albumin. Where indicated, CaCl2 was added to yield a final free concentration of 250 nM calcium at pH 7.0 at 37° C.
Compounds (10 mM in DMSO) were randomly selected from a library of 24,000 compounds obtained from ChemBridge and curated by the lab of Robert Hughes at the Buck Institute. Master screening plates were prepared using a Biomek FX liquid handling workstation (Beckman) to transfer 1 μL of each compound into individual wells on 96-well storage plates (80 compounds per plate). Master plates were sealed with foil and stored at −80° C. Just prior to use, plates were brought to room temperature and diluted 300-fold with standard buffer (13.3X=33.3 μM). To monitor the performance of each assay throughout screening and to provide intra-plate normalization reference points, DMSO negative controls and known mitochondrial inhibitor positive controls were included on each Master compound plate.
(§2) Total amounts of superoxide and H2O2 production were determined fluorometrically as H2O2, without distinguishing between them, in the presence of exogenous superoxide dismutase (25 units/mL final), horseradish peroxidase (1 unit/mL final), and Amplex UltraRed (25 μM final) as described (Affourtit, C. et al. (2012) Measurement of proton leak and electron leak in isolated mitochondria. Methods Mol. Biol. 810: 165-82). Just prior to use, a bulk 3.3X solution was made in standard buffer and distributed into a 2 mL deep well 96-well transfer plate.
To assess the effects of a compound on ROS production from glycerol-3-phosphate dehydrogenase (GPDH), Start Solution containing 25 mM glycerol phosphate, 4 μM rotenone, 2.5 μM antimycin A, 1 mM malonate, 2 μM myxothiazol was distributed into standard 96-well transfer plates. A Biomek FX workstation was programmed to dispense solutions into black 96-well assay plates. Solutions were dispensed to all assay plates in the following order: ROS Detection solution described in Example 3, Mitochondria solution described in Example 1 to a final concentration of 0.2 mg/ml, and Compound dilutions described in Example 2. Duplicate assay plates were made and each was initiated by the addition of 3.3X Start solution containing 25 mM glycerol phosphate, 4 μM rotenone, 2.5 μM antimycin A, 1 mM malonate, 2 μM myxothiazol. Plates were incubated in the dark at room temperature for 30-40 minutes before acquiring endpoint fluorescence using a Victor 3V plate reader (Perkin Elmer) equipped with 550/590 nm excitation/emission filters.
The fluorescence values in each well were scaled as the percent change from the intra-plate DMSO controls. […] Following initial scaling, intra-plate normalized values were subjected to Tukey's two-way median polish to remove row and column dependent positional effects (Malo et al., 2006).

Assay [5] deals with mitochondrial membrane potential (ΔΨm). Briefly: Membrane potential (ΔΨm) counterscreen with TMRM. The following applies: malate, nigericin. In general terms: Counterscreens check selectivity or assay interference.
Method: Skeletal muscle mitochondria were isolated from 5-8 week old female Wistar rats (Harlan Laboratories). Minced muscle was homogenized in buffer containing bacterial protease Type VIII prior to differential centrifugation to separate mitochondria from other tissue components. Unless otherwise stated, freshly isolated muscle mitochondria were assayed in buffer containing 120 mM KCl, 5 mM HEPES, 1 mM EGTA, 0.3% (w/v) bovine serum albumin. Where indicated, CaCl2 was added to yield a final free concentration of 250 nM calcium at pH 7.0 at 37° C. Total and free calcium concentrations were calculated using the Extended MaxChelator program at http://maxchelator.stanford.edu.
Compounds were manually transferred from the Master Compound Plate to two black 96-well assay plates. A bulk solution was prepared containing the following components (final concentrations) and manually dispensed into the two ΔΨm assay plates: the potentiometric dye TMRM (5 μM), mitochondria (0.2 mg/mL), glutamate (5 mM), malate (5 mM), and nigericin (80 ng/mL).
Assay [6] addresses T4, succinate dehydrogenase/complex II (SDH) (Rattus norvegicus, UniProt P21913+Q641Z9+Q6PCT8+Q920L2).
T4 construct: freshly isolated muscle mitochondria were assayed; from tissue; host or cells: rat skeletal muscle mitochondria (Wistar, Harlan Laboratories)
Briefly: High-throughput screen: ROS production from succinate dehydrogenase/complex II (SDH). In kind it is biochemical. The conditions noted are these: for inhibition at 2.5 µM: Table 7; for inhibition at 2.5 µM / SDH: percent change in ROS from DMSO controls.
Method: as §1
Just prior to use, plates were brought to room temperature and diluted 300-fold with standard buffer (13.3X=33.3 μM). To monitor the performance of each assay throughout screening and to provide intra-plate normalization reference points, DMSO negative controls and known mitochondrial inhibitor positive controls were included on each Master compound plate.
as §2
To assess the effects of a compound on ROS production from succinate dehydrogenase/complex II (SDH), Start Solution containing 15 μM palmitoyl carnitine, 2.5 μM antimycin A and 2 μM myxothiazol was distributed into standard 96-well transfer plates. A Biomek FX workstation was programmed to dispense solutions into black 96-well assay plates. Solutions were dispensed to all assay plates in the following order: ROS Detection solution described in Example 3, Mitochondria solution described in Example 1 to a final concentration of 0.3 mg/ml, and Compound dilutions described in Example 2. Duplicate assay plates were made and each was initiated by the addition of 3.3X Start solution containing 15 μM palmitoyl carnitine, 2.5 μM antimycin A and 2 μM myxothiazol. Plates were incubated in the dark at room temperature for 30-40 minutes before acquiring endpoint fluorescence using a Victor 3V plate reader (Perkin Elmer) equipped with 550/590 nm excitation/emission filters.
The fluorescence values in each well were scaled as the percent change from the intra-plate DMSO controls with the appropriate inhibitor positive controls defined as −100%. Following initial scaling, intra-plate normalized values were subjected to Tukey's two-way median polish to remove row and column dependent positional effects (Malo et al., 2006).

Where [7] appears, read: Table 7, percent change in ROS from DMSO controls, read-out: IIIQO.
Where [8] appears, read: percent change in ROS from DMSO controls.
[9] abbreviates: Table 9, percent change in ROS from DMSO controls, read-out: IIIQo.

Structures are written as SMILES. Where two headings read alike, the source gives them in different places.

T4 sequence (Q920L2 35-656): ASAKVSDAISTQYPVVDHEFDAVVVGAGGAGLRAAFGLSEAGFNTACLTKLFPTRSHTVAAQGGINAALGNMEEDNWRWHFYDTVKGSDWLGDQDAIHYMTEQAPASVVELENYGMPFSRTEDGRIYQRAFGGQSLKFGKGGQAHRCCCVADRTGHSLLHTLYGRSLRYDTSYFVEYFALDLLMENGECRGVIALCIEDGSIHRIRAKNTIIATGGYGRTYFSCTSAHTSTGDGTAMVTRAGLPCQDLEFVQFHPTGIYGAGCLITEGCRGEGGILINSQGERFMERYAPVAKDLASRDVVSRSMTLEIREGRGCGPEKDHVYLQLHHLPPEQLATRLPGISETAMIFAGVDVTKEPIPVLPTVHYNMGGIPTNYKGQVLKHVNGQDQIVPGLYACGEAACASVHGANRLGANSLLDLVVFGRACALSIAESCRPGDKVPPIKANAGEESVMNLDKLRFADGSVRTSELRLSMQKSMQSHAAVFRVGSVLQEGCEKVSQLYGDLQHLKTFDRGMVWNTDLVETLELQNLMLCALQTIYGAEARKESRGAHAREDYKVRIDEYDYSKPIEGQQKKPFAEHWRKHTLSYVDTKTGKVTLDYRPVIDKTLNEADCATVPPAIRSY
T4 sequence (P21913 31-282): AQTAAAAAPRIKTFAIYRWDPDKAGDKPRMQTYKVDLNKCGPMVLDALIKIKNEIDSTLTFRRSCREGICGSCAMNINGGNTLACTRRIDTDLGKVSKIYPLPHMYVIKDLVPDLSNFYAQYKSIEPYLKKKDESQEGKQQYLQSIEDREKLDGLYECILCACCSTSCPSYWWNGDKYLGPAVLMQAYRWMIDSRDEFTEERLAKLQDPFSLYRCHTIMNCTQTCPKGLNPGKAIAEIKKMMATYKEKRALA
T4 sequence (Q641Z9 30-169 limits assumed): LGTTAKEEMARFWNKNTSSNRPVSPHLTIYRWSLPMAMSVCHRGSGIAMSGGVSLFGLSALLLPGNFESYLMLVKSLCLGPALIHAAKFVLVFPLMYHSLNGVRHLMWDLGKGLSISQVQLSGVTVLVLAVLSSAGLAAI
T4 sequence (Q6PCT8 57-159): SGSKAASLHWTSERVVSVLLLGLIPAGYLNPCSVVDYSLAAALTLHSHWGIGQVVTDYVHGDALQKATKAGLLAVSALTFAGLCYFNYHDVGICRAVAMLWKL

Consider `COc1cccc(CCNC2C3CC4CC(C3)CC2C4)c1` (stereo not drawn) [Compound 26], for which the IQ in assay [1] (Table 7), in assay [1] (Table 8) and in assay [1] (Table 9) was −0.8 throughout. Moreover, the figures for the inhibition at 2.5 µM in assay [2], in assay [3] (setting [7]) and in assay [3] (setting [9]) were 19.6%, 1.8% and 1.8%, respectively. The IF in assay [2] (Table 8) and in assay [2] (Table 9) was −19.6 in each case. The same compound had an IIIQO in assay [3] (setting [8]) of −1.8. Further, the inhibition in assay [4] turned out to be 3.3%. The GPDH in assay [4] (Table 8) and in assay [4] (Table 9) was −3.3 in each case. In addition, the ΔΨm is −0.7 in assay [5] (Table 8, glutamate) and −0.7 in assay [5] (Table 9, glutamate).

Consider `CCCCN(Cc1ccccc1)Cc1cc(Cl)cc(Cl)c1O` [Compound 38], for which the IQ in assay [1] (Table 7), in assay [1] (Table 8) and in assay [1] (Table 9) was −3.9 throughout. In addition, the inhibition at 2.5 µM in assay [2] came out at 1.8%; in assay [3] (Table 4, 5 mM succinate, 4 μM rotenone, 2.5 μM antimycin A, compounds 2.5 μM, percent change from DMSO, read-out: % Reduction in ROS production (IIIQO)), 31.3%; in assay [3] (setting [7]) it was 31.3%; in assay [3] (setting [9]), 31.3%. The IF in assay [2] (Table 8) and in assay [2] (Table 9) was −1.8 in each case. The compound also showed an IIIQO in assay [3] (setting [8]) of −31.3. In assay [4], the inhibition was -3.7%. The GPDH in assay [4] (Table 8) and in assay [4] (Table 9) was 3.7 each time. The ΔΨm amounted to 0.3 in assay [5] (Table 8, glutamate) and 0.3 in assay [5] (Table 9, glutamate).

In the case of `COC(=O)CCC(=O)Nc1ccc(C)cc1` [Compound 53], in assay [1] (Table 7), the IQ is on record as 0.1. In addition, the inhibition at 2.5 µM in assay [2] was -1.3%; in assay [3] (setting [7]), -0.8%; in assay [6] it was 0.3%; in assay [4], 0%. Also, the inhibition in assay [4] is -0.9%.

The compound `CCCCCCNC(=O)CCC(=O)O` [Compound 54] came in with an IQ in assay [1] (Table 7) of 2.3. Moreover, the inhibition at 2.5 µM in assay [2] was -8%; in assay [3] (setting [7]), -2.5%; in assay [6] it was -4.4%; in assay [4], -0.9%. The inhibition in assay [4] was -3.3%.

In turn, `c1ccc2[nH]c(-c3ccc(-c4nc5ccccc5[nH]4)cc3)nc2c1` [Compound 55] gave an IQ in assay [1] (Table 7) of −3.9. The inhibition at 2.5 µM in assay [2] is 1.9%; in assay [3] (setting [7]), -3.3%; in assay [6] it was -1.5%; in assay [4], -3.3%. Moreover, the inhibition in assay [4] is -1.5%.

`C=C(C)C(=O)Nc1ccc(-c2nc3ccccc3[nH]2)cc1` [Compound 56]: the IQ in assay [1] (Table 7) is given as −0.3. Also, the inhibition at 2.5 µM was -0.3% in assay [2], -1.4% in assay [3] (setting [7]), 2.9% in assay [6] and -1.5% in assay [4]. The inhibition in assay [4] came out at 0.8%.

The compound `O=C(O)CCC(=O)Nc1ccc(-c2nc3cc(NC(=O)CCC(=O)O)ccc3[nH]2)cc1` [Compound 57] returned an IQ in assay [1] (Table 7) of 3.1. The inhibition at 2.5 µM in assay [2] is -1.7%; in assay [3] (setting [7]), -0.4%; in assay [6] it was -4.2%; in assay [4], 0.8%. Besides, the inhibition in assay [4] was -0.2%.

Take `O=C(O)CCC(=O)Nc1ccc(Cl)cc1` [Compound 58]: the IQ in assay [1] (Table 7) is −6.4. For the same compound, the inhibition at 2.5 µM in assay [2] is -0.1%; in assay [3] (setting [7]) it was -0.8%; in assay [6], -1.5%; in assay [4], -0.2%. In assay [4], the inhibition was found to be 1.2%.

In turn, `CC(=O)Nc1ccc(-c2nc3ccccc3[nH]2)cc1` [Compound 59] showed an IQ in assay [1] (Table 7) of −12.3. The inhibition at 2.5 µM is 3% in assay [2], 1.3% in assay [3] (setting [7]), 5.1% in assay [6] and 1.2% in assay [4]. Moreover, the inhibition in assay [4] stood at 4.4%.

The compound `O=C(O)CCC(=O)Nc1cccc(-c2nc3ccccc3[nH]2)c1` [Compound 60] registered an IQ in assay [1] (Table 7) of −43.9. The inhibition at 2.5 µM in assay [2] is 4.2%; in assay [3] (setting [7]) it was -1.1%; in assay [6], 3.4%; in assay [4], 4.4%. In assay [4], the inhibition worked out at 48.3%.

Compound `O=C(Nc1ccc(-c2nc3ccccc3[nH]2)cc1)c1ccco1` [Compound 63] yielded an IQ in assay [1] (Table 7) of −6.9. Moreover, the inhibition at 2.5 µM in assay [2] was -0.9%; in assay [3] (setting [7]) it was -1.8%; in assay [6], -3.5%; in assay [4], 1.7%. Further, the inhibition in assay [4] was -8.2%.

As to `CCOc1ccc(C(=O)Nc2ccc(-c3nc4ccccc4[nH]3)cc2)cc1` [Compound 64], the IQ in assay [1] (Table 7) is on record as −15.3. Besides, the inhibition at 2.5 µM in assay [2] is 3.8%; in assay [3] (setting [7]), 1%; in assay [6], -9.8%; in assay [4], -8.2%. In addition, the inhibition in assay [4] was 13%.

`O=C(O)CCC(=O)Nc1ccc(-c2nc3ccccc3s2)cc1` [Compound 65]: the IQ in assay [1] (Table 7) was −11.0. Also, the inhibition at 2.5 µM in assay [2] is 1.3%; in assay [3] (setting [7]) it was 1%; in assay [6] it was -0.2%; in assay [4], 13%. In addition, the inhibition in assay [4] was 1.9%.

The compound `O=C(Nc1ccc(-c2nc3ccccc3[nH]2)cc1)C1CC1` [Compound 66] had an IQ in assay [1] (Table 7) of −2.8. Further, the inhibition at 2.5 µM in assay [2] worked out at 0.2%; in assay [3] (setting [7]), 1.2%; in assay [6] it was 2.5%; in assay [4] it was 1.9%. For the same compound, in assay [4], the inhibition is -1.8%.

In assay [1] (Table 7), `Cc1ccc(NC(=O)CCC(=O)O)cc1` [Compound 67] returned an IQ of −11.7. Further, the inhibition at 2.5 µM in assay [2] was 10.1%; in assay [3] (setting [7]), 6.5%; in assay [6] it was 16.8%; in assay [4], -1.8%. Also, the inhibition in assay [4] came out at 11.1%.

In assay [1] (Table 7), `CCCC(=O)Nc1ccc(-c2nc3cc4ccccc4cc3[nH]2)cc1` [Compound 68] came in with an IQ of −23.0. Moreover, the inhibition at 2.5 µM in assay [2] was 1.3%; in assay [3] (setting [7]), -1.1%; in assay [6] it was 3.7%; in assay [4], 11.1%. For the same compound, in assay [4], the inhibition came out at 32.1%.

As to `O=C(O)CCC(=O)Nc1ccc(-c2nc3cc(C(=O)c4ccccc4)ccc3[nH]2)cc1` [Compound 69], the IQ in assay [1] (Table 7) is listed as −20.1. Moreover, the inhibition at 2.5 µM in assay [2] was 1.8%; in assay [3] (setting [7]), -5.5%; in assay [6], 6.3%; in assay [4], 32.1%. For the same compound, the inhibition in assay [4] amounted to 26%.

Regarding `Cc1ccc2[nH]c(-c3ccc(NC(=O)CCC(=O)O)cc3)nc2c1` [Compound 70], the IQ in assay [1] (Table 7) is reported as −0.2. For the same compound, the inhibition at 2.5 µM is 2.2% in assay [2], 0.4% in assay [3] (setting [7]), -4.6% in assay [6] and 26% in assay [4]. Moreover, the inhibition in assay [4] was 0%.

For `CC1CC(C)(C)N(C=O)c2ccccc21` (stereo not drawn) [Compound 71], the IQ in assay [1] (Table 7), in assay [1] (Table 8) and in assay [1] (Table 9) was 1.6 each time. Besides, the inhibition at 2.5 µM is -7% in assay [2], -6.3% in assay [3] (setting [7]), -6.3% in assay [3] (setting [9]) and 87.6% in assay [6]. For the same compound, the IF in assay [2] (Table 8) and in assay [2] (Table 9) was 7.0 in each case. Also, the IIIQO in assay [3] (setting [8]) was found to be 6.3. Besides, in assay [6] (Table 5, 15 μM palmitoyl carnitine, 2.5 μM antimycin A, 2 μM myxothiazol, compounds 2.5 μM, percent change from DMSO), the “% Reduction in ROS Production (SDH)” value is on record as −87.6%. Further, the SDH in assay [6] (Table 8) and in assay [6] (Table 9) was −87.6 each time. Further, the inhibition in assay [4] is 0.6%. Also, the GPDH in assay [4] (Table 8) and in assay [4] (Table 9) was −0.6 each time.

Source of the values: US20140128352A1, “COMPOUNDS AND METHODS FOR MODULATING MITOCHONDRIAL METABOLISM AND REACTIVE OXYGEN SPECIES PRODUCTION” (Buck Institute for Research on Aging, priority 2012, published 2014).
